Assay results taken from paper PMC10833116 (Journal of Enzyme Inhibition and Medicinal Chemistry, 2024).

What follows are compounds tested on adult female Wistar rats (assay: Gastric ulcerogenic activity). Conditions: fasted rats.
Type: in vivo, rat

SMILES	Gastric ulcerogenic potential, gross examination
Cc1ccc(-c2cc(C(F)(F)F)nn2-c2ccc(S(N)(=O)=O)cc2)cc1 [Celecoxib, celecoxib, reference compound]	no ulceration
Cc1ccc(C(C)C)c(O)c1C=NN=c1scc(-c2ccccc2)n1-c1ccccc1 [Compound 6a, 2-((2-Hydroxy-3-isopropyl-6-methylbenzylidene)hydrazono)-3,4-diphenyl-2,3-dihydrothiazole]	no ulceration
Cc1ccc(C(C)C)c(O)c1C=NN=c1scc(-c2ccccc2)n1-c1ccccc1Cl [Compound 6b, 2-((2-Hydroxy-3-isopropyl-6-methylbenzylidene)hydrazono)-3-(2-chlorophenyl)-4-phenyl-2,3-dihydrothiazole]	no ulceration
Cc1ccc(C(C)C)c(O)c1C=NN=c1scc(-c2ccc(Br)cc2)n1-c1ccccc1Cl [Compound 6f, 2-((2-Hydroxy-3-isopropyl-6-methylbenzylidene)hydrazono)-3-(2-chlorophenyl)-4-(4-bromophenyl)-2,3-dihydrothiazole]	no ulceration
O=C(O)Cc1ccccc1Nc1c(Cl)cccc1Cl [Diclofenac sodium, diclofenac sodium, reference compound]	no ulceration
